Experimental data from ChEMBL document CHEMBL1124150, “cis-4-Carboxy-6-(mercaptomethyl)-3,4,5,6-tetrahydropyrimidin-2(1 H)-one , a potent inhibitor of mammalian dihydroorotase” (J Med Chem, 1988).
Each block holds one molecule with its values, some of them ahead of it.

Key:
B16 [1] = assay: In vitro antiproliferative activity against Murine B16 Melanoma cells in presence of 1 mM uridine at a dose of 0.25 mM; assay type: functional, Mus musculus
B16 [2] = assay: In vitro antiproliferative activity against Murine B16 Melanoma cells in presence of 1 mM uridine at a dose of 1 mM; assay type: functional, Mus musculus
B16 [3] = assay: In vitro antiproliferative activity against Murine B16 Melanoma cells without uridine at a dose of 0.25 mM; assay type: functional, Mus musculus
B16 [4] = assay: In vitro antiproliferative activity against Murine B16 Melanoma cells without uridine at a dose of 2 mM; assay type: functional, Mus musculus
B16 [5] = assay: In vitro antiproliferative activity against Murine B16 Melanoma cells without uridine at a dose of 1 mM; assay type: functional, Mus musculus
B16 [6] = assay: In vitro antiproliferative activity against Murine B16 Melanoma cells without uridine at a dose of 0.5 mM; assay type: functional, Mus musculus
B16 [7] = assay: In vitro antiproliferative activity against Murine B16 Melanoma cells in presence of 1 mM uridine at a dose of 0.5 mM; assay type: functional, Mus musculus
B16 [8] = assay: In vitro antiproliferative activity against Murine B16 Melanoma cells without uridine at a dose of 0.12 mM; assay type: functional, Mus musculus
B16 [9] = assay: In vitro antiproliferative activity against Murine B16 Melanoma cells in presence of 1 mM uridine at a dose of 2 mM; assay type: functional, Mus musculus
B16 [10] = assay: In vitro antiproliferative activity against Murine B16 Melanoma cells in presence of 1 mM uridine at a dose of 0.12 mM; assay type: functional, Mus musculus
[11] = Dissociation constant was determined; assay type: physicochemical
B16 [12] = assay: In vitro antiproliferative activity against Murine B16 Melanoma cells without uridine at a dose of 0.01 mM; assay type: functional, Mus musculus
B16 [13] = assay: In vitro antiproliferative activity against Murine B16 Melanoma cells in presence of 1 mM uridine at a dose of 0.1 mM; assay type: functional, Mus musculus
B16 [14] = assay: In vitro antiproliferative activity against Murine B16 Melanoma cells in presence of 1 mM uridine at a dose of 10 mM; assay type: functional, Mus musculus
B16 [15] = assay: In vitro antiproliferative activity against Murine B16 Melanoma cells without uridine at a dose of 0.1 mM; assay type: functional, Mus musculus
B16 [16] = assay: In vitro antiproliferative activity against Murine B16 Melanoma cells without uridine at a dose of 10 mM; assay type: functional, Mus musculus
B16 [17] = assay: In vitro antiproliferative activity against Murine B16 Melanoma cells in presence of 1 mM uridine at a dose of 0.01 mM; assay type: functional, Mus musculus

Structure (SMILES): COC(=O)[C@@H]1C[C@H](CSC(C)=O)NC(=O)N1 (relative stereo)
- Growth inhibition (B16 [1]): 2%
- Growth inhibition (B16 [2]): 83%
- Growth inhibition (B16 [3]): 2%
- Growth inhibition (B16 [4]): 96%
- Growth inhibition (B16 [5]): 94%
- Growth inhibition (B16 [6]): 28%
- Growth inhibition (B16 [7]): 9%
- Growth inhibition (B16 [8]): 0%
- Growth inhibition (B16 [9]): 98%
- Growth inhibition (B16 [10]): 0%

- Ki [11]: 0.2 µM
Structure (SMILES): O=C1N[C@@H](CS)C[C@@H](C(=O)O)N1 (relative stereo)
- Growth inhibition (B16 [1]): 3%
- Growth inhibition (B16 [2]): 12%
- Growth inhibition (B16 [3]): 9%
- Growth inhibition (B16 [4]): 22%
- Growth inhibition (B16 [5]): 17%
- Growth inhibition (B16 [6]): 14%
- Growth inhibition (B16 [7]): 4%
- Growth inhibition (B16 [8]): 4%
- Growth inhibition (B16 [9]): 18%
- Growth inhibition (B16 [10]): 0%

Structure (SMILES): O=C(O)C[C@H](NC(=O)CP(=O)(O)O)C(=O)O [PALA]
- Growth inhibition (B16 [2]): 9%
- Growth inhibition (B16 [12]): 16%
- Growth inhibition (B16 [13]): 6%
- Growth inhibition (B16 [5]): 86%
- Growth inhibition (B16 [14]): 10%
- Growth inhibition (B16 [15]): 79%
- Growth inhibition (B16 [16]): 84%
- Growth inhibition (B16 [17]): 6%
